Like-named read-outs stand apart in the source and are kept apart here.

Broadly, the IC50 is the concentration at which inhibition is half-maximal. By melting point is commonly meant the temperature, or range, at which the solid turns liquid. The Ki is the dissociation constant of the complex between target and ligand, obtained from inhibition or displacement.

The target of data set [1] is T1, iNOS (Mus musculus, UniProt P29477).
T1 construct: from tissue
Put plainly: Blocking studies of tracer uptake in LPS-treated mice. The format is in vivo. The protocol: This example describes blocking studies. […] P., et al., J. Biol. Chem. 272: 4959-4963, 1997). […] At 1 h post injection, % ID in lung was determined.

For data set [2], the target named is T2, iNOS (Homo sapiens, UniProt P35228). Put plainly: iNOS activity, nitric oxide synthase screening kit (IC50). The class given is biochemical.
T2 sequence (P35228 whole entry): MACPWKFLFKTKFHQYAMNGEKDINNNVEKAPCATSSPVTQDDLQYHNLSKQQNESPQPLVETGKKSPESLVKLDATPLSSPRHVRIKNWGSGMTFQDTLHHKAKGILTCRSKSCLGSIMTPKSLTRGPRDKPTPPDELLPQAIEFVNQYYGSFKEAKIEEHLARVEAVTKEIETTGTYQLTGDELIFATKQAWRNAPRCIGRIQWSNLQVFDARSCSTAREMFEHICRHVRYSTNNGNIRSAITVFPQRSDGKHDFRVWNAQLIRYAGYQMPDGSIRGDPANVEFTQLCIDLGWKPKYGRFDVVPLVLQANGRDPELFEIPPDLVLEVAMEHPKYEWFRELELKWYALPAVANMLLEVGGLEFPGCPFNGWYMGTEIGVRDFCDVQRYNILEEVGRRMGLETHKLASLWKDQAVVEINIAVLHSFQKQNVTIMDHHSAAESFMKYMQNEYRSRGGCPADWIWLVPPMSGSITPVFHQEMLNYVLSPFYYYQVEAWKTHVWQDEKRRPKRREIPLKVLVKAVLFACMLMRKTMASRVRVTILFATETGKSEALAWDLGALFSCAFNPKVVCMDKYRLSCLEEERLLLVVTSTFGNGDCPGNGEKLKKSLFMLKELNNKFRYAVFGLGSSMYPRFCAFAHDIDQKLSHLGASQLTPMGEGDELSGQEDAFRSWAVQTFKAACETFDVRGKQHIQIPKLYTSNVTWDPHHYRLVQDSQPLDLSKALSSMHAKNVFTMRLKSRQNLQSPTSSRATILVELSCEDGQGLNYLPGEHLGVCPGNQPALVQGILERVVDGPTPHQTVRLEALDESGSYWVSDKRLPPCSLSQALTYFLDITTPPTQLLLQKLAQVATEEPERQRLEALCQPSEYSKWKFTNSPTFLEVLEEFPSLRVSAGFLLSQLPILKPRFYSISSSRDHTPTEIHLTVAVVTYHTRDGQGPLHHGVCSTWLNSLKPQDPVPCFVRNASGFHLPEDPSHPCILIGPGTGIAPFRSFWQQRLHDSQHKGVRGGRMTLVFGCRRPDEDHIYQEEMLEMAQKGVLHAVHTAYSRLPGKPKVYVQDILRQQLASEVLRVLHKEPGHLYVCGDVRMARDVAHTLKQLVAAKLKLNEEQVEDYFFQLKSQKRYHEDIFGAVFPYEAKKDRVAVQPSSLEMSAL
Description: The IC50 for inhibiting iNOS was determined for various compounds, as shown in FIG. 3 and FIG. 4 In these experiments, IC50 determinations for a compound was made by measuring iNOS activity in the presence of a compound at multiple concentrations. iNOS activity was measured by assays using the nitric oxide synthase screening kit (GE Healthcare Biosciences Corp., Piscataway, N.J.) following the manufacturer's protocols.
Data set [3] addresses T2, iNOS. Particulars: cited from earlier work.
The next data set addresses nNOS (Homo sapiens, UniProt P29475). Put plainly: nNOS selectivity, nitric oxide synthase screening kit (IC50). The class given is biochemical. The protocol:
(§1) All assays were performed using the nitric oxide synthase screening kit (GE Healthcare Biosciences Corp., Piscataway, N.J.) following the manufacturer's protocols.

For another data set, the target named is eNOS (Homo sapiens, UniProt P29474). The data set can be described thus: eNOS selectivity, nitric oxide synthase screening kit (IC50). The format is biochemical. The procedure: as §1
Data set [4] can be described thus: Biodistribution in control vs. LPS treated mice. The class given is in vivo, C57BL/6 mice. The protocol:
This example describes the results of in vivo studies on the biodistribution of iNOS inhibitors. The biodistribution studies were performed in mature male C57BL/6 mice. One group of mice was treated with bacterial lipopolysaccharide (LPS) (10 mg/kg, administered intravenously) to induce iNOS expression, and a control group was left untreated.

Data set [5] is described as follows: In vivo stability (percent parent compound in plasma/blood) in rats. On the set-up: species or system Sprague-Dawley rats. The procedure: Adult male Sprague-Dawley rats were injected with [^18F]compound 14, and at 5 and 30 minutes post injection, plasma samples were obtained. Supernatants from the plasma samples were analyzed by silica gel radio-TLC and reversed phase HPLC. After 30 minutes, the percent parent compound was only 20.2%. Additionally, within 5 minutes post injection, only 40.3% of the activity in the blood was [^18F]compound 14, which was confirmed by HPLC co-elution with non-radioactive compound 14. According to the HPLC analysis, the major metabolite, constituting 50% of the activity in blood at 5 minutes post injection, was very polar but was not free [^18F] fluoride. This observation is also consistent with the low bone uptake reported in biodistribution studies.

A short description of data set [6]: In vitro stability in heparinized rat whole blood. The class given is in vitro ADME, Sprague-Dawley rat. The note with it: 37° C. The procedure:
The in vitro stability of [^18F]compound 14 was tested by using heparinized blood from an adult male Sprague-Dawley rat. [^18F]compound 14 was relatively stable in the whole blood for 2 h at 37° C. At 1 h, approximately 80% of the activity recovered from lysed whole blood was observed as [^18F]compound 14, and at 2 h, approximately 75% of the recovered activity was still in the form of [^18F]compound 14.

Data set [7] addresses T1, iNOS. Put plainly: microPET imaging study in LPS-treated and control mice. The format is in vivo. The note with it: LPS intratracheally treated mouse vs control mouse. The procedure:
Two mice, one intratracheally treated with LPS, and a control mouse, were injected with [^18F]compound 14. […] This difference in tracer accumulation is consistent with the difference in accumulation of iNOS described between LPS-treated and control mice in the preceeding examples.

The mark [8] stands for this setting: iNOS, read-out: IC50 of tested compounds.
[9] abbreviates: iNOS, read-out: IC50 (standards for measuring IC50).
The mark [10] stands for this setting: measured against SEITU, L-NIL and 2-AP as standards, read-out: IC50 for iNOS.
[11] abbreviates: read-out: Selectivity (IC50) iNOS.

Turning to `CC(=N)NCc1cccc(CN)c1` [1400 W, N-(3-(aminomethyl)benzyl)acetamidine], the “tracer uptake in the lungs and blood blocked” value on iNOS [1] (blocker 5 mg/kg i.v. immediately before [18F]compound 14, 1 h post injection) amounted to 32%.

Turning to `Cc1cc(N)nc(CCCCF)c1` [DZ(IV)-120], at iNOS [2] (setting [8]), the IC50 came to 170 ± 26.5 nM.

Molecule `Cc1cc(N)nc(CC(C)C)c1` [Compound 11] had a melting point of 59 to 61 °C. In addition, on iNOS [2] (setting [8]), the IC50 amounted to 193 ± 38 nM.

As to `C/C=C/c1cc(C)cc(N)n1` [DZ(III)-73], at iNOS [2] (setting [8]), the IC50 was 282 ± 48.6 nM.

In the case of `CCSC(=N)N` [SEITU, S-ethylisothiourea, reference compound], the IC50 on iNOS [2] (setting [9]) came out at 30.5 ± 4.6 nM. At iNOS [3] (reported value), the Ki was 32 nM.

As to `Nc1ncc2[nH]cnc2n1` [Compound 2-AP, 2-aminopurine, reference compound], the IC50 at iNOS [2] (setting [9]) is 108 ± 34.5 nM; at iNOS [3] (reported value for standards), 170 nM.

For `Cc1cc(N)nc(CCCF)c1` [Compound 52], the half-maximal inhibitory concentration (IC50) on nNOS is 514 ± 83.3 nM; against eNOS, 1430 ± 158 nM; on iNOS [2] (setting [8]) it was 57.6 ± 5.3 nM; at iNOS [2] (setting [10]) it was less than 190 nM; on iNOS [2] (setting [11]), 57.6 ± 5.3 nM.

In the case of `CC(C)=Cc1cc(C)cc(N)n1` [Compound 25], at iNOS [2] (setting [8]), the IC50 was 685 ± 127 nM.

With `Cc1cc(N)nc(CC(C)CCF)c1` (stereo not shown) [DZ(IV)-93], the IC50 at iNOS [2] (setting [8]) amounted to 731 ± 87 nM.

For `Cc1cc(N)nc(CC(C)O)c1` (stereo not shown) [DZ(III)-77/Compound 14], the IC50 on iNOS [2] (setting [8]) is 1780 ± 395 nM.

On to `Cc1ccnc(N)c1` [2-amino-4-methylpyridine], for which the “blocking of increased uptake of [18F]compound 14” value at iNOS [1] (blocker 10 mg/kg intravenously) is listed as “failed to block”.

Regarding `Cc1cc(N)nc(CC(C)F)c1` (stereo not shown) [Compound 14], the IC50 is 493 ± 80.8 nM against nNOS; 1520 ± 300 nM at eNOS; 54.3 ± 8.9 nM on iNOS [2] (setting [8]); less than 190 nM on iNOS [2] (setting [10]); 54.3 ± 8.9 nM at iNOS [2] (setting [11]).

In the case of `Cc1cc(N)nc(CC(C)[18F])c1` (stereo not shown) [[^18F]compound 14], in [4] (Control mice, 5 min), the “Biodistribution Blood” value is 2.37 ± 0.18 % ID/g, the “Biodistribution Bone” value is reported as 1.52 ± 0.36 % ID/g, the “Biodistribution Brain” value was 1.60 ± 0.17 % ID/g and the “Biodistribution Heart” value came out at 1.50 ± 0.12 % ID/g. Besides, in data set [4] (Control mice, 5 min), the “Biodistribution Kidney” value worked out at 20.6 ± 2.4 % ID/g, the “Biodistribution Liver” value came to 33.2 ± 3.3 % ID/g, the “Biodistribution Lung” value was determined as 3.33 ± 0.28 % ID/g and the “Biodistribution Muscle” value came out at 1.25 ± 0.06 % ID/g. Besides, in [4] (Control mice, 30 min), the “Biodistribution Blood” value came out at 1.22 ± 0.16 % ID/g, the “Biodistribution Bone” value came out at 2.26 ± 0.55 % ID/g, the “Biodistribution Brain” value was 0.28 ± 0.02 % ID/g and the “Biodistribution Heart” value is given as 0.60 ± 0.05 % ID/g. Moreover, in data set [4] (Control mice, 30 min), the “Biodistribution Kidney” value is reported as 7.30 ± 0.66 % ID/g, the “Biodistribution Liver” value is 10.7 ± 0.3 % ID/g, the “Biodistribution Lung” value was found to be 1.14 ± 0.13 % ID/g and the “Biodistribution Muscle” value turned out to be 0.71 ± 0.31 % ID/g. For the same molecule, in [4] (Control mice, 1 h), the “Biodistribution Blood” value worked out at 0.31 ± 0.04 % ID/g, the “Biodistribution Bone” value is 2.57 ± 0.64 % ID/g, the “Biodistribution Brain” value is 0.11 ± 0.02 % ID/g and the “Biodistribution Heart” value is given as 0.19 ± 0.02 % ID/g. In data set [4] (Control mice, 1 h), the “Biodistribution Kidney” value was 2.20 ± 0.25 % ID/g, the “Biodistribution Liver” value came to 2.59 ± 0.49 % ID/g, the “Biodistribution Lung” value is given as 0.31 ± 0.06 % ID/g and the “Biodistribution Muscle” value is given as 0.27 ± 0.18 % ID/g. In addition, in data set [4] (Control mice, 2 h), the “Biodistribution Blood” value is 0.27 ± 0.22 % ID/g, the “Biodistribution Bone” value is recorded as 5.59 ± 4.20 % ID/g, the “Biodistribution Brain” value amounted to 0.07 ± 0.03 % ID/g and the “Biodistribution Heart” value is 0.08 ± 0.02 % ID/g. For the same molecule, in [4] (Control mice, 2 h), the “Biodistribution Kidney” value came out at 0.80 ± 0.27 % ID/g, the “Biodistribution Liver” value worked out at 0.74 ± 0.23 % ID/g, the “Biodistribution Lung” value is listed as 0.15 ± 0.03 % ID/g and the “Biodistribution Muscle” value turned out to be 0.34 ± 0.27 % ID/g. In addition, the “tracer uptake, LPS-treated vs non-treated mice” value in data set [4] (LPS 10 mg/kg intravenously, Table 4 and FIG. 11) was “greater uptake”. Also, in data set [4] (LPS treated mice, 5 min), the “Biodistribution Blood” value was found to be 3.69 ± 0.38 % ID/g, the “Biodistribution Bone” value came out at 1.59 ± 0.15 % ID/g, the “Biodistribution Brain” value was 1.81 ± 0.09 % ID/g and the “Biodistribution Heart” value is listed as 2.03 ± 0.06 % ID/g. Further, in data set [4] (LPS treated mice, 5 min), the “Biodistribution Kidney” value was found to be 26.7 ± 4.1 % ID/g, the “Biodistribution Liver” value turned out to be 24.6 ± 3.1 % ID/g, the “Biodistribution Lung” value is recorded as 4.32 ± 0.32 % ID/g and the “Biodistribution Muscle” value stood at 1.64 ± 0.09 % ID/g. In [4] (LPS treated mice, 30 min), the “Biodistribution Blood” value stood at 2.09 ± 0.35 % ID/g, the “Biodistribution Bone” value is 3.70 ± 1.20 % ID/g, the “Biodistribution Brain” value came out at 0.52 ± 0.15 % ID/g and the “Biodistribution Heart” value is recorded as 1.02 ± 0.16 % ID/g. In [4] (LPS treated mice, 30 min), the “Biodistribution Kidney” value was found to be 10.9 ± 2.8 % ID/g, the “Biodistribution Liver” value came to 7.06 ± 0.28 % ID/g, the “Biodistribution Lung” value is given as 1.84 ± 0.27 % ID/g and the “Biodistribution Muscle” value amounted to 1.06 ± 0.40 % ID/g. Moreover, in data set [4] (LPS treated mice, 1 h), the “Biodistribution Blood” value is 0.86 ± 0.09 % ID/g, the “Biodistribution Bone” value is 4.30 ± 0.90 % ID/g, the “Biodistribution Brain” value is on record as 0.19 ± 0.03 % ID/g and the “Biodistribution Heart” value is listed as 0.41 ± 0.10 % ID/g. In [4] (LPS treated mice, 1 h), the “Biodistribution Kidney” value was found to be 3.95 ± 0.53 % ID/g, the “Biodistribution Liver” value came out at 2.63 ± 0.52 % ID/g, the “Biodistribution Lung” value came to 0.73 ± 0.17 % ID/g and the “Biodistribution Muscle” value was found to be 0.78 ± 0.47 % ID/g. In addition, in [4] (LPS treated mice, 2 h), the “Biodistribution Blood” value worked out at 0.23 ± 0.05 % ID/g, the “Biodistribution Bone” value was found to be 3.77 ± 1.41 % ID/g, the “Biodistribution Brain” value is recorded as 0.07 ± 0.03 % ID/g and the “Biodistribution Heart” value was determined as 0.12 ± 0.04 % ID/g. In [4] (LPS treated mice, 2 h), the “Biodistribution Kidney” value worked out at 0.91 ± 0.63 % ID/g, the “Biodistribution Liver” value is 0.42 ± 0.15 % ID/g, the “Biodistribution Lung” value was 0.18 ± 0.09 % ID/g and the “Biodistribution Muscle” value is reported as 0.23 ± 0.13 % ID/g. Also, in data set [5] (5 minutes post injection), the “activity in the blood that was parent compound” value is 40.3%. The “major (very polar) metabolite, share of the activity in blood” value in data set [5] (5 minutes post injection, HPLC) is recorded as 50%. Moreover, the percent parent compound in data set [5] (plasma, 30 minutes post injection) was determined as 20.2%. Besides, in data set [6] (1 h), the “activity recovered from lysed whole blood observed as parent” value is listed as “approximately 80%”. Moreover, the “recovered activity still in the form of parent” value in [6] (2 h) is “approximately 75%”. Moreover, at iNOS [7], the “tracer accumulation in lungs (microPET)” value is given as “accumulated in the lungs of the LPS-treated mouse, but not in the control mouse”.

The values are drawn from patent US20100278751A1, “RADIOLABELED 2-AMINO-4-ALKYL-6-(HALOALKYL)PYRIDINE COMPOUNDS AND THEIR USE IN DIAGNOSTIC IMAGING” (WASHINGTON UNIVERSITY, priority 2009, published 2010).
